Reference: ChEMBL document CHEMBL3044753, “Polyamines May Modulate Both G Protein-Coupled Receptors and G Proteins” (Med Chem Res, 2004)
The source made the active and inactive calls. The calls are words filed in the database; no cut-off is given here.

Legend:
Right cardiac atrium [1] = assay: Negative […] activity in electrically-paced Cavia porcellus (guinea pig) right atrium assessed as effect on force measured after 60 min by isometric transducer analysis in absence of benextramine/4-DAMP mustard relative to N-dodecyl lysine amide; assay type: functional
Left cardiac atrium [2] = assay: Negative ionotropic activity in electrically-paced Cavia porcellus (guinea pig) left atrium measured after 60 min by isometric transducer analysis in presence of benextramine; assay type: functional, tissue-based
[3] = molecular target: T1, Muscarinic acetylcholine receptor M5 (Homo sapiens) (UniProt P08912); assay: Allosteric modulation of Homo sapiens (human) recombinant muscarinic M5 receptor expressed in CHO cells assessed as inhibition of carbachol-induced [35S]GTPgammaS binding; assay type: functional, cell-based
T1 sequence (whole entry): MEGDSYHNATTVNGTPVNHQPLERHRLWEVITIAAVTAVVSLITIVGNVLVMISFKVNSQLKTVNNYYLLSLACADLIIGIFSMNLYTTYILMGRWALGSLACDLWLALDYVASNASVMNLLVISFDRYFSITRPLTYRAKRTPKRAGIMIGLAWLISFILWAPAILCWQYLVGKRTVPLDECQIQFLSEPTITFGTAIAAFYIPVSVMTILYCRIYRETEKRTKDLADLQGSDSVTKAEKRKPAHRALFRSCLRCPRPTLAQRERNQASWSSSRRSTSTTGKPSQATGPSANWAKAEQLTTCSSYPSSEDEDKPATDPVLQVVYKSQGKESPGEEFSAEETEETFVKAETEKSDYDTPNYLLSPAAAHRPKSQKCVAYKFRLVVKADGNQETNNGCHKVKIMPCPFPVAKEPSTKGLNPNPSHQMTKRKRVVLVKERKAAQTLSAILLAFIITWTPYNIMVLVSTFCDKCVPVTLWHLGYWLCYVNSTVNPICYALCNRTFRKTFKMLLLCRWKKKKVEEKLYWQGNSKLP

[4] = molecular target: T2, Muscarinic acetylcholine receptor M4 (Homo sapiens) (UniProt P08173); assay: Binding affinity to Homo sapiens (human) recombinant muscarinic M4 receptor expressed in CHO cells assessed as [35S]GTPgammaS binding; assay type: functional, cell-based
T2 sequence (whole entry): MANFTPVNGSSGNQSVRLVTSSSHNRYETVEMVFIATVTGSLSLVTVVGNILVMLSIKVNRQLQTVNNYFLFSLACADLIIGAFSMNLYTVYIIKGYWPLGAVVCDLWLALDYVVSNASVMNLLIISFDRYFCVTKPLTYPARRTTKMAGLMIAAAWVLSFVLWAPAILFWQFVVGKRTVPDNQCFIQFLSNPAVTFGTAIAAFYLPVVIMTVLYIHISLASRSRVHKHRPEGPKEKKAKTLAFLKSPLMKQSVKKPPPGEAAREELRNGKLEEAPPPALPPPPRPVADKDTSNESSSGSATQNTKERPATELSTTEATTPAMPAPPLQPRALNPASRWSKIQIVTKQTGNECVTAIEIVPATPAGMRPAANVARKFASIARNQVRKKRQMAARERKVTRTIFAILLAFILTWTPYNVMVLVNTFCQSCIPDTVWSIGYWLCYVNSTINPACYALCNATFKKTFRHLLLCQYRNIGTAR

Left cardiac atrium [5] = assay: Negative ionotropic activity in electrically-paced Cavia porcellus (guinea pig) left atrium measured after 60 min by isometric transducer analysis in presence of benzalkonium; assay type: functional, tissue-based
Right cardiac atrium [6] = assay: Negative ionotropic activity in electrically-paced Cavia porcellus (guinea pig) right atrium measured after 60 min by isometric transducer analysis in presence of ANR 83; assay type: functional, tissue-based
Left cardiac atrium [7] = assay: Negative ionotropic activity in electrically-paced Cavia porcellus (guinea pig) left atrium measured after 60 min by isometric transducer analysis in presence of benextramine/4-DAMP mustard relative to N-dodecyl lysine amide; assay type: functional
[8] = molecular target: T3, Muscarinic acetylcholine receptor M1 (Homo sapiens) (UniProt P11229); assay: Allosteric modulation of Homo sapiens (human) recombinant muscarinic M1 receptor expressed in CHO cells assessed as inhibition of carbachol-induced [35S]GTPgammaS binding; assay type: functional, cell-based
T3 sequence (whole entry): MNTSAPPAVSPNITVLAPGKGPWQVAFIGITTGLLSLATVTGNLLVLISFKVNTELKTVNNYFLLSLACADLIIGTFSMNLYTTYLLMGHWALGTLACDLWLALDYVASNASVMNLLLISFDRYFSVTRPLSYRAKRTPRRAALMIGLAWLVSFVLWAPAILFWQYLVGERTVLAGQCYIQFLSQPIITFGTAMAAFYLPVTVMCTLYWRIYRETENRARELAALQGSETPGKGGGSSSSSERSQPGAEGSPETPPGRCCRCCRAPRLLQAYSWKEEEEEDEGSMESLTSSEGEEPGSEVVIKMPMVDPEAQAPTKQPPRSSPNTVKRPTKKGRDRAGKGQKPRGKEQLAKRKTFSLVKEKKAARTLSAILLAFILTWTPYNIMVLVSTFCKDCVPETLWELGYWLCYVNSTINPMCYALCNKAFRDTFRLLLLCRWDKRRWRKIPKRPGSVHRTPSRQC

Right cardiac atrium [9] = assay: Negative […] activity in electrically-paced Cavia porcellus (guinea pig) right atrium assessed as effect on force measured after 60 min by isometric transducer analysis in presence of benextramine/4-DAMP mustard; assay type: functional, tissue-based; conditions: 1 h
Right cardiac atrium [10] = assay: Negative ionotropic activity in electrically-paced Cavia porcellus (guinea pig) right atrium measured after 60 min by isometric transducer analysis in presence of naloxane; assay type: functional, tissue-based
Right cardiac atrium [11] = assay: Negative […] activity in electrically-paced Cavia porcellus (guinea pig) right atrium assessed as effect on force measured after 60 min by isometric transducer analysis in presence of benextramine/4-DAMP mustard relative to N-dodecyl lysine amide; assay type: functional
Left cardiac atrium [12] = assay: Negative ionotropic activity in electrically-paced Cavia porcellus (guinea pig) left atrium measured after 60 min by isometric transducer analysis in presence of AM 251; assay type: functional, tissue-based
Left cardiac atrium [13] = assay: Negative ionotropic activity in electrically-paced Cavia porcellus (guinea pig) left atrium measured after 60 min by isometric transducer analysis in presence of dihydroergocristine; assay type: functional, tissue-based
Left cardiac atrium [14] = assay: Negative ionotropic activity in electrically-paced Cavia porcellus (guinea pig) left atrium measured after 60 min by isometric transducer analysis in presence of ANR 83; assay type: functional, tissue-based
[15] = molecular target: T3, Muscarinic acetylcholine receptor M1 (Homo sapiens); assay: Binding affinity to Homo sapiens (human) recombinant muscarinic M1 receptor expressed in CHO cells assessed as [35S]GTPgammaS binding; assay type: functional, cell-based
Right cardiac atrium [16] = assay: Negative ionotropic activity in electrically-paced Cavia porcellus (guinea pig) right atrium measured after 60 min by isometric transducer analysis in presence of AM 630; assay type: functional, tissue-based
Right cardiac atrium [17] = assay: Negative ionotropic activity in electrically-paced Cavia porcellus (guinea pig) right atrium measured after 60 min by isometric transducer analysis in presence of pimozide; assay type: functional, tissue-based
Right cardiac atrium [18] = assay: Negative ionotropic activity in electrically-paced Cavia porcellus (guinea pig) right atrium measured after 60 min by isometric transducer analysis in presence of benzalkonium; assay type: functional, tissue-based
Right cardiac atrium [19] = assay: Negative ionotropic activity in electrically-paced Cavia porcellus (guinea pig) right atrium measured after 60 min by isometric transducer analysis in presence of benextramine; assay type: functional, tissue-based
[20] = molecular target: T2, Muscarinic acetylcholine receptor M4 (Homo sapiens); assay: Allosteric modulation of Homo sapiens (human) recombinant muscarinic M4 receptor expressed in CHO cells assessed as inhibition of carbachol-induced [35S]GTPgammaS binding; assay type: functional, cell-based
Left cardiac atrium [21] = assay: Negative ionotropic activity in electrically-paced Cavia porcellus (guinea pig) left atrium measured after 60 min by isometric transducer analysis in presence of benextramine/4-DAMP mustard; assay type: functional, tissue-based; conditions: 1 h

SMILES	Efficacy (Right cardiac atrium [1])	Activity (Left cardiac atrium [2])	Activity [3]	Activity [4]	Activity (Left cardiac atrium [5])	Activity (Right cardiac atrium [6])	Efficacy (Left cardiac atrium [7])	Activity [8]	EC50 (Right cardiac atrium [9])	Activity (Right cardiac atrium [10])	Efficacy (Right cardiac atrium [11])	Activity (Left cardiac atrium [12])	Activity (Left cardiac atrium [13])	Activity (Left cardiac atrium [14])	Activity [15]	Activity (Right cardiac atrium [16])	Activity (Right cardiac atrium [17])	Activity (Right cardiac atrium [18])	Activity (Right cardiac atrium [19])	Activity [20]	other results
COc1ccccc1CN1CCC(C2CCN(CCCCCCCCN3CCC(C4CCN(Cc5ccccc5OC)CC4)CC3)CC2)CC1 [PIPERTRAMINE]	71%	Active	Active	inactive	inactive	Active	96%	Active	0.263 nM	Active	72%	Active	Active	Active	inactive	Active	Active	inactive	Active	Active	EC50 (Left cardiac atrium [21]): 0.331 nM
COc1ccccc1CN1CCC(C2CCN(C(=O)CCCCCCC(=O)N3CCC(C4CCN(Cc5ccccc5OC)CC4)CC3)CC2)CC1 [PIPERTRAMINE AMIDE]	78%	Active	Active	inactive	inactive	Active	85%	Active	3.16 nM	Active	82%	Active	Active	Active	inactive	Active	Active	inactive	Active	Active	EC50 (Left cardiac atrium [21]): 0.589 nM
